According to PMC9873984, “Membrane cholesterol regulates inhibition and substrate transport by the glycine transporter, GlyT2” (Life Science Alliance, 2023):
Residue numbers refer to the chain shown, from its start.

Assays:
[1] = target: T1, GlyT2 T512A mutant (Homo sapiens, UniProt Q9Y345, T512A); test: Inhibitor washout time course (reversibility); type: cell-based; parameters: expressed in transfected cells; host or cells: Xenopus laevis oocytes injected with mutant RNA (pOTV vector); settings: for Half-life (transport current recovery) / Recovery at 30 Min: washout after 4 min IC50 concentration
T1 sequence (Q9Y345 1-797 T512A): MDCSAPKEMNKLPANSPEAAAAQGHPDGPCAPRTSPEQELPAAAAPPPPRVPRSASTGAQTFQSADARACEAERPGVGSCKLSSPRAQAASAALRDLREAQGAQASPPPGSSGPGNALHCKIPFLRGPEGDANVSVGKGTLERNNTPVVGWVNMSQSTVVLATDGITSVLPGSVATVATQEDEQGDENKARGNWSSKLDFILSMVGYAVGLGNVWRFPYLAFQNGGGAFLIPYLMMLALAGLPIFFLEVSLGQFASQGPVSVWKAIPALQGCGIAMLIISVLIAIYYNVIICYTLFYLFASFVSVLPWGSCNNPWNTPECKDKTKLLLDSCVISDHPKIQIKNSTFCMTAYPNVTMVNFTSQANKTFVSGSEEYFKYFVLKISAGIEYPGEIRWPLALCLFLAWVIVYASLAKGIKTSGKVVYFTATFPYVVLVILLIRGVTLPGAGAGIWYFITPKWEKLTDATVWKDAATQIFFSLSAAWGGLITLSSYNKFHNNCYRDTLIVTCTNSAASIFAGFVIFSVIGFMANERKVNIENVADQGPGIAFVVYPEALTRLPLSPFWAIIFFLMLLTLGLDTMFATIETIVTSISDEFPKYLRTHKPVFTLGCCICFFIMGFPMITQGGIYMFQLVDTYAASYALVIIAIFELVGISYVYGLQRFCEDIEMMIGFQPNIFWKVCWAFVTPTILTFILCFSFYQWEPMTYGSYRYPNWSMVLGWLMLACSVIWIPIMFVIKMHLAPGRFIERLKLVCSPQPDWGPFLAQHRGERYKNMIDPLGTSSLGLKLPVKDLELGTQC
Procedure: (§1) Reversibility of GlyT2 inhibitors was determined by applying an EC50 concentration of glycine followed by co-application of the inhibitor at an IC50 concentration once a stable current had been achieved. Inhibitors were applied for 4 min as this was sufficient time to produce substantial inhibition for each compound and allowed for their direct comparison. At the conclusion of 4 min (time 0), ND96 buffer was perfused through the recording chamber to wash the oocyte. […] Transport currents were normalized to glycine currents in the absence of inhibitor and converted to % recovery values via Y=It−It=0/Imax−It=0, where Y is % recovery, I is current in nA, Imax is the maximal current produced by the glycine EC50, and t is time in minutes. Washout kinetics were then determined by fitting % recovery values to the first-order rate equation: Y=(Y0−Plateau).e^(−Kt)+Plateau, where Y is the % recovery, Y0 is the point, which crosses the Y-axis (constrained to 0) and increases to the plateau (constrained to between 0 and 100), K is the rate constant (1/t), and t is time in minutes. […] Because of the slowly […] nature of the inhibitors, washout time courses involving cyclodextrin treatment could not be performed on the same cell. […] As these experiments could not occur on the same cell, differences in half-life and maximal recovery were analysed via an unpaired two-tailed t test.

[2] = target: T2, GlyT2 Y430L mutant (Homo sapiens, UniProt Q9Y345, Y430L); test: Inhibitor washout time course (reversibility); type: cell-based; parameters: expressed in transfected cells; host or cells: Xenopus laevis oocytes injected with mutant RNA (pOTV vector)
T2 sequence (Q9Y345 1-797 Y430L): T1 sequence (Q9Y345 1-797 T512A) with Y430L, A512T
Procedure: as §1

[3] = washout after 4 min IC50 concentration

Row | Increase in recovery of current 30 min after application, vs WT ([1]; T512A) | Half-life (transport current recovery) ([1]; T512A) | Recovery at 30 Min ([1]; T512A) | Increase in recovery of current 30 min after application, vs WT [2] | Recovery at 30 Min [2, 3] | Half-life (transport current recovery) [2, 3] | Increase of recovery after 30 min compared to WT ([1]; T512A vs WT) | SMILES
1 | 25.1% | 1.7 ± 0.3 min | 76.2 ± 4.1 % | 16.8% | 67.9 ± 2.3 % |  |  | CCCCCCCC/C=C\CCCCCCCC(=O)N[C@@H](CC(C)C)C(=O)O [Oleoyl-L-Leucine, oleoyl-L-leucine]
2 |  | No Recovery | No Recovery |  | No Recovery | No Recovery |  | CCCCCCCC/C=C\CCCCCCCC(=O)N[C@@H](Cc1c[nH]c2ccccc12)C(=O)O [Oleoyl-L-Tryptophan, oleoyl-L-tryptophan]
3 |  |  | 79.4% |  | 80.6% |  | 1.8 fold | CCCCCCCC/C=C\CCCCCCCC(=O)O[C@H](CC(=O)[O-])C[N+](C)(C)C [Oleoyl-L-Carnitine, oleoyl-L-carnitine]
4 |  |  | 63.5 ± 2.0% | 17.4% | 72.5 ± 2.1 % |  |  | CCCCCCCC/C=C\CCCCCCCC(=O)N[C@@H](CCCCN)C(=O)O [Oleoyl-L-Lysine, oleoyl-L-lysine]
